Reference: patent US10039806B2, “Methods and compositions for treating antiprogestin-resistant cancers” (Fundación Sales, priority 2011, dated 2018)

How the values were obtained:
[1] = system: PRA and PRB in C4-2-HI and 59-HI cells; assay: PR isoform expression after 5azadC in vitro (immunofluorescence, western blot); assay type: cell-based, mouse; conditions: 96 h
Procedure: C4-2-HI and 59-HI epithelial cells from primary cell cultures were allowed to attach for 24 h. The medium was replaced with fresh medium with 10% FCS, and 5azadC was added for 96 h. The medium was refreshed daily. Cells were processed for western blot or immunofluorescence to evaluate PR expression.
Cytosolic or nuclear extracts were processed for western blots as described previously. The cells were lysed using Mammalian Protein Extraction Reagent (Pierce, Rockford, Ill.) according the manufacturer's instructions. […] The band intensities from 3 to 4 different tumor samples indifferent western blots were quantified using Image Quant software.
Frozen sections or cells grown in chamber slides, fixed in 70% ethanol for 1 h, were incubated with antibodies recognizing Dnmt1, Dnmt3a, Dnmt3b, PRA (Ab-7), RPB (Ab-6), or GR, in blocking buffer at a 1:200 dilution overnight at 4° C. […] Stained cells were analyzed using a Nikon Eclipse E800 Laser Confocal Microscope and EZ-C1 2.20 software. Cell staining was quantified using Image Quant software.

GR in C4-2-HI cells = assay: GR expression in vitro (immunofluorescence); assay type: cell-based, mouse; conditions: 5×10^-7 M, 96 h
Procedure: Frozen sections or cells grown in chamber slides, fixed in 70% ethanol for 1 h, were incubated with antibodies recognizing Dnmt1, Dnmt3a, Dnmt3b, PRA (Ab-7), RPB (Ab-6), or GR, in blocking buffer at a 1:200 dilution overnight at 4° C. They were then incubated with a FITC conjugated anti-rabbit (FI-1000, Vector Laboratories Burlingame, Calif.; 1:100 dilution) secondary antibody for 1 h at room temperature. Nuclei were stained with propidium iodide (PI, Sigma). The slides were mounted using Vectashield (Vector Laboratories). Stained cells were analyzed using a Nikon Eclipse E800 Laser Confocal Microscope and EZ-C1 2.20 software. Cell staining was quantified using Image Quant software.

C4-2-HI tumors = assay: Constitutive-resistant tumor transplanted s.c. in BALB/c mice; assay type: in vivo, mouse
Procedure: (§1) C4-2-HI, 59-HI, and C4-HIR tumors were transplanted s.c nearby the mammary gland 4th in syngenic mice, and measured every 2 days (length and width). Treatments were initiated when the tumors were palpable. […] The mice were inoculated intraperitoneally (i.p.) with 0.75 mg/kg 5azadC (for C4-2-HI and C4-HIR tumors) or 1 mg/kg 5azadC (for 59-HI tumors) every other day. All the experiments were repeated twice using five mice per group. The animals were euthanized after 13 days of treatment, and tumor samples were removed and frozen at −80° C. or fixed in 10% formaldehyde.
(§2) Cytosolic or nuclear extracts were processed for western blots as described previously. The cells were lysed using Mammalian Protein Extraction Reagent (Pierce, Rockford, Ill.) according the manufacturer's instructions. The western blot membranes were incubated with antibodies against PR (C-19, Santa Cruz Biotech, CA, or Ab-7, Neomarkers, Lab Vision Corp, Fremont, Calif.), PRB (Ab-6, Neomarkers), ERKs (SC-94, Santa Cruz Biotech), E-Cad (610182, BD), Actin (1-19, Santa Cruz Biotech), DnmtI, Dnmt3a and Dnmt3b (H-300, H-295, and H-230, respectively, Santa Cruz Biotech), RARβ (SC-14028, Santa Cruz Biotech), PTEN Ab32199, Abcam), p16 (SC-1207, Santa Cruz Biotech), Rb (SC-50, Santa Cruz Biotech), or glucocorticoid receptors (GRs) (SC-1004, Santa Cruz Biotech) overnight at 4° C., at a concentration of 2 μg/ml in PBST (0.8% NaCl, 0.02% KCl, 0.144% Na2PO4, 0.024% KH2PO4, pH 7.4, 0.1% Tween 20). The band intensities from 3 to 4 different tumor samples indifferent western blots were quantified using Image Quant software.
(§3) Sections of formalin-fixed, paraffin-embedded tissue were processed as previously described and stained with the PRA-specific antibody (C-19) using the avidin-biotin-peroxidase complex technique (Vectastain Elite ABC kit; Vector), as described previously.
(§4) H&E stained sections of livers, spleens, and kidneys from the 5azadC-treated mice (1 mg/kg or 0.75 mg/kg/every other day; n=5) were studied by an expert mouse pathologist. The percentage of tumor stoma versus tumor parenchyma was quantified with the ImageJ software in treated and untreated tumors. The stromal area in relation to the total tumor area was calculated in five representative fields of each sample, using 400× magnification, in three different tumor samples of each group, and the mean±SEM was calculated. Mitotic and apoptotic indices were counted in 10 and 15 high-power fields (HPFs), respectively, of each section, using 1000× magnification, and expressed as the mean±SEM of the percentage of the ratios between the total number of events (mitosis or apoptosis) and the total cell number per HPF. Mitotic figures were identified morphologically by the condensed “hairy” aspect of the chromosomes. Morphological identification of apoptosis was performed according to criteria previously reported, which correlated with the deoxynucleotidyl transferase mediated dUTP-biotin nick end labeling (TUNEL) method.
as §1, with “C4-2-HI” for “C4-2-HI, 59-HI,”, “59-HI” for “C4-HIR”, “every other day” for “(for C4-2-HI”, “s.c. with” for “C4-HIR tumors) or”, “TSA” for “5azadC (for 59-HI tumors)”, “−80 C” for “−80° C.”

59-HI tumors = assay: as above; assay type: in vivo, mouse
Procedure: as §1, §2, §3, §4
as §1, with “C4-2-HI” for “C4-2-HI, 59-HI,”, “59-HI” for “C4-HIR”, “every other day” for “(for C4-2-HI”, “s.c. with” for “C4-HIR tumors) or”, “TSA” for “5azadC (for 59-HI tumors)”, “−80 C” for “−80° C.”

[2] = Histology of livers, spleens and kidneys of 5azadC-treated mice; assay type: in vivo, mouse; conditions: 0.75 and 1 mg/kg every other day
Procedure: as §4

C4-2-HI and 59-HI cells = assay: (3H)-thymidine incorporation with 5azadC and RU-486 in 10% FCS; assay type: cell-based, mouse; conditions: 5 μM 5azadC, 100 nM RU-486; P<0.001
Procedure: (3H)-thymidine-uptake was used as an indirect method to evaluate cell proliferation. In brief, cells were seeded into 96-well microplates. After attachment (24 h), the cells were incubated for 24 h with 1% steroid-stripped FCS and then for 48 h with the experimental solutions to be tested in 1% chFCS. Fifty percent of the medium was replaced with fresh medium every 24 h. […] In experiments in which 5azadC was used, the experiments were carried out using proliferating cells (presence of 10% FCS) to guarantee the effect of the demethylating agent. Three different experiments were made using octuplicates, and the means and standard deviations of one representative experiment of the other three are shown.

T47D cells = conditions: 5% FCS; cited from earlier work
[3] = system: C4-HI or C4-HIR epithelial cells with carcinoma-associated fibroblasts; assay: (3H)-thymidine uptake, co-cultures with carcinoma-associated fibroblasts; assay type: cell-based, mouse; conditions: own or other tumor's fibroblasts
Procedure: Trypsinized cells were resuspended and equal amounts of epithelial cells and carcinoma-associated fibroblasts were seeded with 10% FCS that was replaced after attachment by 1% steroid-stripped FCS. […] The same amount of epithelial cells or carcinoma-associated fibroblasts or double the amount of purified cells was used for comparison.
(§5) (3H)-thymidine-uptake was used as an indirect method to evaluate cell proliferation. In brief, cells were seeded into 96-well microplates. After attachment (24 h), the cells were incubated for 24 h with 1% steroid-stripped FCS and then for 48 h with the experimental solutions to be tested in 1% chFCS. Fifty percent of the medium was replaced with fresh medium every 24 h. The cells were incubated with 0.4 μCi of 3H-thymidine (specific activity: 20 Ci/mmol) for 24 h, trypsinized, and harvested in a cell harvester. In experiments in which 5azadC was used, the experiments were carried out using proliferating cells (presence of 10% FCS) to guarantee the effect of the demethylating agent. Three different experiments were made using octuplicates, and the means and standard deviations of one representative experiment of the other three are shown. The results are expressed as the proliferation index (cpm […] experimental group/cpm control; mean±SEM).

C4-HI cells = assay: (3H)-thymidine uptake, primary cultures of purified epithelial cells; assay type: cell-based, mouse; conditions: 48 h, 1% chFCS; P<0.001
Procedure: (§6) Epithelial cells and carcinoma-associated fibroblasts were separated by differential sedimentation and plated with 10% FCS. Carcinoma-associated fibroblasts were allowed to attach for 0.5 h and the epithelial cells for 24-48 h. The medium was replaced by fresh medium with 10% FCS; thereafter, it was changed every 2-3 days.
as §5

C4-HIR cells = assay: as above; assay type: cell-based, mouse; conditions: 48 h, 1% chFCS; P<0.001
Procedure: as §6, §5

C4-2-HI cells = assay: as above; assay type: cell-based, mouse; conditions: 48 h, 1% chFCS
Procedure: as §6, §5

| Structure (SMILES) | PRA expression ([1]; 5×10^-7 M (C4-2-HI), 5×10^-6 M (59-HI), P<0.001) | PRB staining (Ab-6 antibody) [1] | expression of GR (immunofluorescence) (GR in C4-2-HI cells) | PRA staining (immunohistochemistry) (C4-2-HI tumors; 5azadC-treated vs control tumors) | PRA expression (western blots) (C4-2-HI tumors; P<0.01) | tumor growth (C4-2-HI tumors; RU-486 12 mg/kg/day s.c., 5azadC 0.75 mg/kg every other day i.p., 13 days) | PRB level (C4-2-HI tumors; not shown) | expression of GR (western blots) (C4-2-HI tumors; tumors from 5azadC-treated mice) | PRA staining (immunohistochemistry) (59-HI tumors; 5azadC-treated tumors) | PRA expression (western blots) (59-HI tumors; P<0.01) | tumor growth (59-HI tumors; RU-486 12 mg/kg/day s.c., 5azadC 1 mg/kg every other day i.p., 13 days) | PRB level (59-HI tumors; not shown) | Histological evaluation of liver, spleen, and kidney [2] | cell proliferation, (3H)-thymidine incorporation (C4-2-HI and 59-HI cells) | effects on T47D cells (T47D cells) | co-culture cell proliferation [3] | cell proliferation (proliferation index) (C4-HI cells) | cell proliferation (proliferation index) (C4-HIR cells) | cell proliferation (proliferation index) (C4-2-HI cells) |
| --- | --- | --- | --- | --- | --- | --- | --- | --- | --- | --- | --- | --- | --- | --- | --- | --- | --- | --- | --- |
| Nc1ncn([C@H]2C[C@H](O)[C@@H](CO)O2)c(=O)n1 [5azadC, 5-aza-2′-deoxycytidine] | increase in PRA expression | no significant changes | decreased | increase in nuclear and cytoplasmic PRA staining | increase in PRA expression | no significant differences | not significantly modified | decreased | only cytoplasmic and perinuclear PRA staining | increase in PRA expression | no significant differences | not significantly modified | no signs of toxicity | did not alter cell proliferation | – | – | – | – | – |
| CC(=O)O[C@]1(C(C)=O)CC[C@H]2[C@@H]3C[C@H](C)C4=CC(=O)CC[C@]4(C)[C@H]3CC[C@@]21C [MPA, medroxyprogesterone acetate] | – | – | – | – | – | – | – | – | – | – | – | – | – | – | inhibitory effects | stimulated | strong proliferative effect | proliferative effect | no differences were observed |
